# Test results taken from patent US11642339B2 (THERAVANCE BIOPHARMA R&D IP, LLC, priority 2017, dated 2023).
# Tested on: subjects with diabetic or idiopathic gastroparesis
# Assay: DIGEST I Phase 2b: weekly GCSI-24H total score;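 also: Patient-reported daily electronic-diary symptom index rating nausea/vomiting, postprandial fullness/early satiety and bloating, averaged weekly, once-daily oral capsule taken before breakfast, baseline from 1-week pretreatment period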
# [1] = 5 mg/day, Week 4, diabetic patients
# [2] = 5 mg/day, Week 4, idiopathic patients
# [3] = 5 mg/day, Week 8, diabetic patients
# [4] = 5 mg/day, Week 8, idiopathic patients
# [5] = 5 mg/day, Week 12, diabetic patients
# [6] = 5 mg/day, Week 12, idiopathic patients
# [7] = 5 mg/day, Week 14 (off therapy), diabetic patients
# [8] = 5 mg/day, Week 14 (off therapy), idiopathic patients
# [9] = 15 mg/day, Week 4, diabetic patients
# [10] = 15 mg/day, Week 4, idiopathic patients
# [11] = 15 mg/day, Week 8, diabetic patients
# [12] = 15 mg/day, Week 8, idiopathic patients
# [13] = 15 mg/day, Week 12, diabetic patients
# [14] = 15 mg/day, Week 12, idiopathic patients
# [15] = 15 mg/day, Week 14 (off therapy), diabetic patients
# [16] = 15 mg/day, Week 14 (off therapy), idiopathic patients
# [17] = 30 mg/day, Week 4, diabetic patients
# [18] = 30 mg/day, Week 4, idiopathic patients
# [19] = 30 mg/day, Week 8, diabetic patients
# From the text: The total duration of study participation for each completed subject was approximately 19 weeks including: • Screening period: up to 5 weeks, including one week baseline period; • Treatment period: 12 weeks; and • Follow-up: 2 weeks.
# To qualify for entry into the Baseline Period of the study, subjects had to have: a) a composite score of 2 and <5 points on nausea, bloating, feeling excessively full after meals, and not able to finish a normal-sized meal on the GCS1-2W; b) a score of ≥3 points for at least 2 of these 4 symptoms on the GCS1-2W at Screening; and c) delayed gastric emptying as determined by either a 4-hour ^99mTc GES or GEBT. If a subject failed either the GES or GEBT at Screening, then a second gastric emptying test could have been performed during the Screening Period using the GEBT in order to qualify for the study. Subjects who were eligible for further study participation completed the 2 daily PRO measures (the Gastroparesis Rating Scale [GRS] and a daily version of the GCSI, designated the Gastroparesis Cardinal Symptoms Index—24-Hour Recall [GCS1-24H] in this study) over a 7-day period to establish baselines.
# After the 1-week Baseline Period, subjects were required to have a 7-day mean score of ≥2.5 and <5 points on the GCS.1-24H at Day 1 to be eligible for entry. Eligible subjects completed the Patient Assessment of Upper Gastrointestinal Quality of Life (PAG1-QOL) questionnaire to establish baseline QOL metrics at Day 1.
# During the treatment period, subjects were instructed to take 1 capsule of study drug once daily approximately 30 minutes prior to eating at approximately the same time each morning and to record the time of drug ingestion in the electronic diary. Subjects also completed the GCS1-24H and GRS on a daily basis using an electronic diary. At specified times, subjects also completed the PAG1-QOL questionnaire to assess QOL metrics and the Treatment Satisfaction Questionnaire. In addition, subjects and clinicians completed the Overall Treatment Effect (OTE) and Overall Gastroparesis Severity (OGS) instruments to serve as anchor instruments for the psychometric evaluation of the GRS measure. Subjects returned to the study center for safety and efficacy assessments as detailed in the Schedule of Study Procedures.
# A total score was used to assess the GCSI PRO, which comprised a mean of 3 means symptoms domain score.
# Each individual domain was evaluated. […] LS Mean Differences in each subgroup are calculated based on repeated measures mixed effect model with change from baseline in weekly GCSI-24H total score as dependent variable, treatment, gastroparesis type (diabetic vs. idiopathic), GE test time (historical vs. prospective), baseline GCSI 24H total score, time, subgroup variable, interaction effect of treatment by time, baseline GCSI 24H total score by time, treatment by subgroup variable, time by subgroup variable and treatment by time by subgroup variable as fixed effect, a random effect of subject within site, using an unstructured covariance structure. For GCSI baseline subgroup analysis, baseline 24H total score is replaced with GCSI baseline categorical variable.
substance,measurement,setting,value
"1-isopropyl-2-oxo-1,2-dihydroquinoline-3-carboxylic acid {(1S,3R,5R)-8-[(R)-2-hydroxy-3-(methanesulfonyl-methyl-amino)propyl]-8-azabicyclo[3.2.1]oct-3-yl}amide [Velusetrag]","LS Mean Difference vs placebo, weekly GCSI-24H total score","5 mg/day, Week 4, ITT",−0.4 points
same,"LS Mean change from baseline, weekly GCSI-24H total score","5 mg/day, Week 4, ITT",−1.5 (0.13) points
same,"LS Mean Difference vs placebo, weekly GCSI-24H total score","5 mg/day, Week 4, ITT, listed as VEL",−0.4 (0.18) points
same,"LS Mean Difference vs placebo, weekly GCSI-24H total score",[1],−0.2 (0.25) points
same,"LS Mean change from baseline, weekly GCSI-24H total score",[1],−1.5 (0.18) points
same,"LS Mean Difference vs placebo, weekly GCSI-24H total score",[2],−0.6 (0.26) points
same,"LS Mean change from baseline, weekly GCSI-24H total score",[2],−1.5 (0.18) points
same,"LS Mean Difference vs placebo, weekly GCSI-24H total score","5 mg/day, Week 8, ITT",−0.3 (0.20) points
same,"LS Mean change from baseline, weekly GCSI-24H total score","5 mg/day, Week 8, ITT",−1.6 (0.14) points
same,"LS Mean Difference vs placebo, weekly GCSI-24H total score",[3],−0.1 (0.27) points
same,"LS Mean change from baseline, weekly GCSI-24H total score",[3],−1.6 (0.19) points
same,"LS Mean Difference vs placebo, weekly GCSI-24H total score",[4],−0.6 (0.28) points
same,"LS Mean change from baseline, weekly GCSI-24H total score",[4],−1.6 (0.20) points
same,"LS Mean Difference vs placebo, weekly GCSI-24H total score","5 mg/day, Week 12, ITT",−0.3 points
same,"LS Mean change from baseline, weekly GCSI-24H total score","5 mg/day, Week 12, ITT",−1.7 (0.15) points
same,"LS Mean Difference vs placebo, weekly GCSI-24H total score","5 mg/day, Week 12, ITT, listed as VEL",−0.3 (0.21) points
same,"LS Mean Difference vs placebo, weekly GCSI-24H total score",[5],−0.0 (0.29) points
same,"LS Mean change from baseline, weekly GCSI-24H total score",[5],−1.7 (0.21) points
same,"LS Mean Difference vs placebo, weekly GCSI-24H total score",[6],−0.6 (0.30) points
same,"LS Mean change from baseline, weekly GCSI-24H total score",[6],−1.7 (0.21) points
same,"LS Mean Difference vs placebo, weekly GCSI-24H total score",[7],−0.2 (0.29) points
same,"LS Mean change from baseline, weekly GCSI-24H total score",[7],−1.7 (0.20) points
same,"LS Mean Difference vs placebo, weekly GCSI-24H total score",[8],−0.4 (0.30) points
same,"LS Mean change from baseline, weekly GCSI-24H total score",[8],−1.4 (0.21) points
same,"LS Mean Difference vs placebo, weekly GCSI-24H total score","15 mg/day, Week 4, ITT",−0.1 (0.19) points
same,"LS Mean change from baseline, weekly GCSI-24H total score","15 mg/day, Week 4, ITT",−1.2 (0.14) points
same,"LS Mean Difference vs placebo, weekly GCSI-24H total score",[9],0.1 points
same,"LS Mean change from baseline, weekly GCSI-24H total score",[9],−1.2 points
same,"LS Mean Difference vs placebo, weekly GCSI-24H total score",[10],−0.3 (0.28) points
same,"LS Mean change from baseline, weekly GCSI-24H total score",[10],−1.2 (0.20) points
same,"LS Mean Difference vs placebo, weekly GCSI-24H total score","15 mg/day, Week 8, ITT",−0.1 (0.21) points
same,"LS Mean change from baseline, weekly GCSI-24H total score","15 mg/day, Week 8, ITT",−1.3 (0.15) points
same,"LS Mean Difference vs placebo, weekly GCSI-24H total score",[11],0.3 points
same,"LS Mean change from baseline, weekly GCSI-24H total score",[11],−1.2 points
same,"LS Mean Difference vs placebo, weekly GCSI-24H total score",[12],−0.4 (0.30) points
same,"LS Mean change from baseline, weekly GCSI-24H total score",[12],−1.5 (0.22) points
same,"LS Mean Difference vs placebo, weekly GCSI-24H total score","15 mg/day, Week 12, ITT",−0.0 (0.22) points
same,"LS Mean change from baseline, weekly GCSI-24H total score","15 mg/day, Week 12, ITT",−1.4 (0.16) points
same,"LS Mean Difference vs placebo, weekly GCSI-24H total score",[13],0.4 points
same,"LS Mean change from baseline, weekly GCSI-24H total score",[13],−1.3 points
same,"LS Mean Difference vs placebo, weekly GCSI-24H total score",[14],−0.4 (0.32) points
same,"LS Mean change from baseline, weekly GCSI-24H total score",[14],−1.5 (0.24) points
same,"LS Mean Difference vs placebo, weekly GCSI-24H total score",[15],0.4 points
same,"LS Mean change from baseline, weekly GCSI-24H total score",[15],−1.1 points
same,"LS Mean Difference vs placebo, weekly GCSI-24H total score",[16],−0.1 (0.31) points
same,"LS Mean change from baseline, weekly GCSI-24H total score",[16],−1.2 (0.23) points
same,"LS Mean Difference vs placebo, weekly GCSI-24H total score","30 mg/day, Week 4, ITT",0.1 (0.19) points
same,"LS Mean change from baseline, weekly GCSI-24H total score","30 mg/day, Week 4, ITT",−1.0 (0.13) points
same,"LS Mean Difference vs placebo, weekly GCSI-24H total score",[17],0.2 points
same,"LS Mean change from baseline, weekly GCSI-24H total score",[17],−1.0 points
same,"LS Mean Difference vs placebo, weekly GCSI-24H total score",[18],−0.1 (0.26) points
same,"LS Mean change from baseline, weekly GCSI-24H total score",[18],−1.0 (0.18) points
same,"LS Mean Difference vs placebo, weekly GCSI-24H total score","30 mg/day, Week 8, ITT",−0.0 (0.20) points
same,"LS Mean change from baseline, weekly GCSI-24H total score","30 mg/day, Week 8, ITT",−1.3 (0.14) points
same,"LS Mean Difference vs placebo, weekly GCSI-24H total score",[19],0.2 points
same,"LS Mean change from baseline, weekly GCSI-24H total score",[19],−1.3 points
same,"LS Mean Difference vs placebo, weekly GCSI-24H total score","30 mg/day, Week 8, idiopathic patients",−0.2 (0.29) points
same,"LS Mean Difference vs placebo, weekly GCSI-24H total score","30 mg/day, Week 12, ITT",−0.1 (0.22) points
